Results from US6818655B2, “Urotensin-II receptor antagonists” (SmithKline Beecham Corporation, priority 2001, dated 2004).

Target: T1, human and rat GPR-14 (UniProt Q9UKP6)
T1 sequence (Q9UKP6 1-389): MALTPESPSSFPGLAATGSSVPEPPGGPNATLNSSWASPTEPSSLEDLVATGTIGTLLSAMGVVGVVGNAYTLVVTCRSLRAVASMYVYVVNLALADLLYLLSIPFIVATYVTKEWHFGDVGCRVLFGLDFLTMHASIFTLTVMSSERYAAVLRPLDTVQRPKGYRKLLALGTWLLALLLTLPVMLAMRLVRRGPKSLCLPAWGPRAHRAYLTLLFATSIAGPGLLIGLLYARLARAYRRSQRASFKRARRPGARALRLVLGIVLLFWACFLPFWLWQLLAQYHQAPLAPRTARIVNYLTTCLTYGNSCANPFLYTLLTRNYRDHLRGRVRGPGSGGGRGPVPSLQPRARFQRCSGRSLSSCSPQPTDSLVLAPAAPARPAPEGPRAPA
Test: Radioligand binding, [125I] h-U-II, HEK-293 cell membranes
Conditions: radioligand binding assay; HEK-293 cell membranes with stable cloned GPR-14; 200 pM [125I] h-U-II
Method: HEK-293 cell membranes containing stable cloned human and rat GPR-14 (20 ug/assay) were incubated with 200 pM [125I] h-U-II (200 Ci/mmol^−1 in the presence of increasing concentrations of test compounds in DMSO (0.1 nM to 10 uM), in a final incubation volume of 200 ul (20 mM Tris-HCl, 5 mM MgCl2). Incubation was done for 30 minutes at room temperature followed by filtration GF/B filters with Brandel cell harvester. ^125I labeled U-II binding was quantitated by gamma counting. Nonspecific binding was defined by ^125I U-II binding in the presence of 100 nM of unlabeled human U-II. Analysis of the data was performed by nonlinear least square fitting.

Ki: 90 nM
SMILES: COc1cc(NCCCNC(=O)C(c2ccccc2)c2ccccc2)nc2ccccc12 [Example 29, N-[3-(4-Methoxy-quinolin-2-ylamino)-propyl]-2,2-diphenyl-acetamide]
